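1) Cells in 96-well plates. 2) Compound, 48 h, 5 concentrations. 3) Linear interpolation between surrounding doses. 4) Unreached endpoint = highest concentration. The concentration for 50% growth inhibition is given as GI50.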 Activity calls are given as the source filed them. No stated cut-off is given here; in the data, active = GI50 up to about 1.1 µM and inactive = higher.
Tests used:
Assay in all cases: NCI tumour cell line growth inhibition, 48 h
BT-549 = tested on: BT-549
DU-145 = tested on: DU-145
HCC 2998 = tested on: HCC 2998
HCT-116 = tested on: HCT-116
HCT-15 = tested on: HCT-15
HL-60 = tested on: HL-60
Hs-578T = tested on: Hs-578T
IGROV-1 = tested on: IGROV-1
MDA-N = tested on: MDA-N
MOLT-4 = tested on: MOLT-4
NCI-H23 = tested on: NCI-H23
NCI-H460 = tested on: NCI-H460
OVCAR-3 = tested on: OVCAR-3
PC-3 = tested on: PC-3
RPMI-8226 = tested on: RPMI-8226
SF-295 = tested on: SF-295
SF-539 = tested on: SF-539
SK-MEL-2 = tested on: SK-MEL-2
SK-OV-3 = tested on: SK-OV-3
UACC-62 = tested on: UACC-62

In the case of `COc1ccc(C2=C(N)c3ccccc3C2=O)cc1`, the GI50 (BT-549) was 48.6 µM (inactive), the GI50 (DU-145) was > 100 µM (inactive) and the GI50 (HCC 2998) was > 100 µM (inactive). The GI50 (HCT-116) was 87.5 µM (inactive), the GI50 (HCT-15) was greater than 100 µM and the GI50 (HL-60) was > 100 µM (inactive). For the same compound, the GI50 (Hs-578T) was 27.5 µM (inactive), the GI50 (IGROV-1) was 89.7 µM (inactive) and the GI50 (MDA-N) was > 100 µM (inactive). For the same compound, the GI50 (MOLT-4) was > 100 µM (inactive), the GI50 (NCI-H23) was 39.5 µM (inactive) and the GI50 (NCI-H460) was > 100 µM (inactive). For the same compound, the GI50 (OVCAR-3) was > 100 µM (inactive), the GI50 (PC-3) was > 100 µM (inactive) and the GI50 (RPMI-8226) was > 100 µM (inactive). The GI50 (SF-295) was 37.3 µM (inactive), the GI50 (SF-539) was 40.9 µM (inactive) and the GI50 (SK-MEL-2) was > 100 µM (inactive). The GI50 (SK-OV-3) was 43 µM (inactive) and the GI50 (UACC-62) was > 100 µM (inactive).

With `COC(=O)c1cc2c3c(c1)Oc1cc(C(=O)OC)cc4c1C3c1c(cc(C(=O)OC)cc1O4)O2` the GI50 (BT-549) was 20.5 µM (inactive), the GI50 (DU-145) was 5.14 µM (inactive) and the GI50 (HCC 2998) was 31.8 µM (inactive). For the same compound, the GI50 (HCT-116) was 18.6 µM (inactive), the GI50 (HCT-15) was greater than 32 µM and the GI50 (HL-60) was 3.03 µM (inactive). For the same compound, the GI50 (Hs-578T) was 15.3 µM (inactive), the GI50 (IGROV-1) was 11.9 µM (inactive) and the GI50 (MDA-N) was 8.22 µM (inactive). The GI50 (MOLT-4) was 7.41 µM (inactive), the GI50 (NCI-H23) was 25.1 µM (inactive) and the GI50 (NCI-H460) was 23.8 µM (inactive). The GI50 (OVCAR-3) was 10.3 µM (inactive), the GI50 (PC-3) was 10.4 µM (inactive) and the GI50 (RPMI-8226) was 6.44 µM (inactive). The GI50 (SF-295) was 10.6 µM (inactive), the GI50 (SF-539) was 15.1 µM (inactive) and the GI50 (SK-MEL-2) was 36.6 µM (inactive). The GI50 (SK-OV-3) was 16.6 µM (inactive) and the GI50 (UACC-62) was 16.9 µM (inactive).

In the case of `CCOP(=O)(OCC)C(C#N)Cc1ccco1` (stereo not given), the GI50 (BT-549) was > 10 µM (inactive), the GI50 (DU-145) was 1.98 µM (inactive) and the GI50 (HCC 2998) was > 10 µM (inactive). The GI50 (HCT-116) was > 10 µM (inactive), the GI50 (HCT-15) was greater than 10 µM and the GI50 (HL-60) was > 10 µM (inactive). For the same compound, the GI50 (Hs-578T) was > 10 µM (inactive), the GI50 (IGROV-1) was > 10 µM (inactive) and the GI50 (MDA-N) was > 10 µM (inactive). The GI50 (MOLT-4) was > 10 µM (inactive), the GI50 (NCI-H23) was > 10 µM (inactive) and the GI50 (NCI-H460) was > 10 µM (inactive). For the same compound, the GI50 (OVCAR-3) was > 10 µM (inactive), the GI50 (PC-3) was > 10 µM (inactive) and the GI50 (RPMI-8226) was > 10 µM (inactive). The GI50 (SF-295) was > 10 µM (inactive), the GI50 (SF-539) was > 10 µM (inactive) and the GI50 (SK-MEL-2) was > 10 µM (inactive). For the same compound, the GI50 (SK-OV-3) was > 10 µM (inactive) and the GI50 (UACC-62) was > 10 µM (inactive).

For `CCOC(=O)C(c1c[nH]c2ccccc12)(c1c[nH]c2ccccc12)c1c[nH]c2ccccc12`, the GI50 (BT-549) was 44.4 µM (inactive), the GI50 (DU-145) was 39.8 µM (inactive) and the GI50 (HCC 2998) was 17.1 µM (inactive). The GI50 (HCT-116) was 29.2 µM (inactive), the GI50 (HCT-15) was 34.7 µM and the GI50 (HL-60) was 15.9 µM (inactive). The GI50 (Hs-578T) was 23.7 µM (inactive), the GI50 (IGROV-1) was 33.3 µM (inactive) and the GI50 (MDA-N) was 31.9 µM (inactive). For the same compound, the GI50 (MOLT-4) was 5.87 µM (inactive), the GI50 (NCI-H23) was 70.8 µM (inactive) and the GI50 (NCI-H460) was 27.3 µM (inactive). For the same compound, the GI50 (OVCAR-3) was 27.5 µM (inactive), the GI50 (PC-3) was 19.7 µM (inactive) and the GI50 (RPMI-8226) was 11.7 µM (inactive). For the same compound, the GI50 (SF-295) was 30.4 µM (inactive), the GI50 (SF-539) was 42.4 µM (inactive) and the GI50 (SK-MEL-2) was 18.8 µM (inactive). The GI50 (SK-OV-3) was 30.1 µM (inactive) and the GI50 (UACC-62) was 25.9 µM (inactive).

In the case of `CCCCCCCCNC(=O)C1=C(C)NC(C)=C(C(=O)NCCCCCCCC)C1`, the GI50 (BT-549) was > 100 µM (inactive), the GI50 (DU-145) was > 100 µM (inactive) and the GI50 (HCC 2998) was > 100 µM (inactive). The GI50 (HCT-116) was > 100 µM (inactive), the GI50 (HCT-15) was greater than 100 µM and the GI50 (HL-60) was > 100 µM (inactive). The GI50 (Hs-578T) was > 100 µM (inactive), the GI50 (IGROV-1) was > 100 µM (inactive) and the GI50 (MDA-N) was 89.5 µM (inactive). For the same compound, the GI50 (MOLT-4) was > 100 µM (inactive), the GI50 (NCI-H23) was > 100 µM (inactive) and the GI50 (NCI-H460) was > 100 µM (inactive). The GI50 (OVCAR-3) was > 100 µM (inactive), the GI50 (PC-3) was 80 µM (inactive) and the GI50 (RPMI-8226) was 71 µM (inactive). For the same compound, the GI50 (SF-295) was > 100 µM (inactive), the GI50 (SF-539) was > 100 µM (inactive) and the GI50 (SK-MEL-2) was > 100 µM (inactive). For the same compound, the GI50 (SK-OV-3) was > 100 µM (inactive) and the GI50 (UACC-62) was > 100 µM (inactive).

In the case of `Nc1nc2c(c(-c3ccccc3Cl)n1)COC/C2=C\c1ccccc1Cl`, the GI50 (BT-549) was 16 µM (inactive), the GI50 (DU-145) was 16.9 µM (inactive) and the GI50 (HCC 2998) was 19.5 µM (inactive). For the same compound, the GI50 (HCT-116) was 15.8 µM (inactive), the GI50 (HCT-15) was 15.9 µM and the GI50 (HL-60) was 3.08 µM (inactive). For the same compound, the GI50 (Hs-578T) was 21.8 µM (inactive), the GI50 (IGROV-1) was 15.8 µM (inactive) and the GI50 (MDA-N) was 10.9 µM (inactive). The GI50 (MOLT-4) was 12.9 µM (inactive), the GI50 (NCI-H23) was 17.1 µM (inactive) and the GI50 (NCI-H460) was 18.6 µM (inactive). For the same compound, the GI50 (OVCAR-3) was 17.4 µM (inactive), the GI50 (PC-3) was 14.3 µM (inactive) and the GI50 (RPMI-8226) was 10.6 µM (inactive). For the same compound, the GI50 (SF-295) was 14.3 µM (inactive), the GI50 (SF-539) was 18.2 µM (inactive) and the GI50 (SK-MEL-2) was 16.9 µM (inactive). The GI50 (SK-OV-3) was 16.1 µM (inactive) and the GI50 (UACC-62) was 16 µM (inactive).

For `CC(C)SC(=S)Sc1c(Cl)c(Cl)nc(Cl)c1Cl`, the GI50 (BT-549) was 15.3 µM (inactive), the GI50 (DU-145) was 3.94 µM (inactive) and the GI50 (HCC 2998) was 3.31 µM (inactive). The GI50 (HCT-116) was 10.5 µM (inactive), the GI50 (HCT-15) was 2.97 µM and the GI50 (HL-60) was 2.44 µM (inactive). The GI50 (Hs-578T) was 18.6 µM (inactive), the GI50 (IGROV-1) was 7.33 µM (inactive) and the GI50 (MDA-N) was 5.27 µM (inactive). The GI50 (MOLT-4) was 2.65 µM (inactive), the GI50 (NCI-H23) was 12.3 µM (inactive) and the GI50 (NCI-H460) was 17.1 µM (inactive). The GI50 (OVCAR-3) was 1.85 µM (inactive), the GI50 (PC-3) was 4.93 µM (inactive) and the GI50 (RPMI-8226) was 1.75 µM (inactive). For the same compound, the GI50 (SF-295) was 16.3 µM (inactive), the GI50 (SF-539) was 10.9 µM (inactive) and the GI50 (SK-MEL-2) was 7.82 µM (inactive). For the same compound, the GI50 (SK-OV-3) was 17.8 µM (inactive) and the GI50 (UACC-62) was 9.35 µM (inactive).

Reference: ChEMBL document CHEMBL1201862, “PubChem BioAssay data set” (2004)
